{
  "source": "paper PMC5860131",
  "about": "“Identification of natural products as novel ligands for the human 5-HT2C receptor” (Biophysics Reports, 2018)",
  "format_in_all_cases": "binding",
  "key": {"[1]": {"target": "T1, 5-HT2C receptor L209^ECL2F (Homo sapiens, UniProt P28335, DEL255-298/G251D/H250E/H252N/INS299[…]/L209F/L248D/M247A/M300L/T253W)", "T1 construct": "the N- and C-terminals were truncated by 39 and 65 residues, respectively; PreScission protease site + 10× His (C); made in house", "T1 sequence (P28335 with tags, fused parts or gaps with the stated changes)": "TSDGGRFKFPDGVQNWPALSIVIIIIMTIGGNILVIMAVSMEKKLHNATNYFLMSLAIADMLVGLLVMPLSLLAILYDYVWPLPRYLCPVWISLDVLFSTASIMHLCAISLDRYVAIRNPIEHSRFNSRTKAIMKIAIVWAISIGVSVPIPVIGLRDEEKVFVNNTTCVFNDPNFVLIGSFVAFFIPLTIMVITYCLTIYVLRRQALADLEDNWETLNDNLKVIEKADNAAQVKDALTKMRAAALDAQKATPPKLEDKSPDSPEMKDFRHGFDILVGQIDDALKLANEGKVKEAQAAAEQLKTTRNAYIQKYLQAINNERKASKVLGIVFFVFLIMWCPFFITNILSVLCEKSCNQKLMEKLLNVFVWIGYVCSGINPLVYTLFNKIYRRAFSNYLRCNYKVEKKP", "assay": "Affinity MS assay, 5-HT2C mutant L209F", "conditions": "n = 2", "text": "(§1) Based on the binding poses predicted by molecular docking, single-point mutations were designed to test their impact on ligand binding. Mutations of several residues include the highly conserved Asp134^3.32, which is known to cause 5-HT1B or 5-HT2B receptors to abolish the monoamine ligand binding as reported in the literature (Wang et al. [2013]). In this study, residues forming hydrophobic interactions with the substitution groups on the aporphine scaffold of (–)-crebanine (1) were selected for mutation as well and they are Thr139^3.37, Gly218^5.42, Ala222^5.46, and Leu209^ECL2. Effects of those mutations were tested with the CPM assay and the affinity MS assay (Table 2). In the affinity MS experiment, relative ligand-binding capacity (represented by binding %) to different mutants and the wild-type receptor was compared. Among the six mutations tested, five of them reduced the binding of (–)-crebanine (1) by more than 40% relative to binding to the wild-type receptor, displaying the importance of hydrophobic interactions. […]\n(§2) Four experimental replicates were prepared for each pair of the test ligand and the negative control. […] S/C ratios refer to the ratio of MS response of a specific ligand detected in the 5-HT2C incubation sample versus the control. […]"}, "[2]": {"target": "T2, 5-HT2C receptor G218^5.42A (Homo sapiens, UniProt P28335, DEL255-298/G218A/G251D/H250E/H252N/INS299[…]/L248D/M247A/M300L/T253W)", "T2 construct": "the N- and C-terminals were truncated by 39 and 65 residues, respectively; PreScission protease site + 10× His (C); made in house", "T2 sequence (P28335 with tags, fused parts or gaps with the stated changes)": "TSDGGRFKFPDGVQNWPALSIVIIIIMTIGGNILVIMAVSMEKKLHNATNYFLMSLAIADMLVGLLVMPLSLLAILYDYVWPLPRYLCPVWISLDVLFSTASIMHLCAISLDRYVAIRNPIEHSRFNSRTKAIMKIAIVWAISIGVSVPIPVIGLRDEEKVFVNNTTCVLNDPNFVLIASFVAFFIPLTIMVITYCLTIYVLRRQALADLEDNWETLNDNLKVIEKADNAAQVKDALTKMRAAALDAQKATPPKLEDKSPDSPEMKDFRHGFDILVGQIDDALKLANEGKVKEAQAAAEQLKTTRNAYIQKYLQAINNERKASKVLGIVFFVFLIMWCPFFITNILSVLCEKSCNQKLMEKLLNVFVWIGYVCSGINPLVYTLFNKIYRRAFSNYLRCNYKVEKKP", "assay": "CPM thermal stability assay, 5-HT2C mutant G218A", "text": "as §1, with “compared.” for “compared. Among the six mutations tested, five of them reduced the binding of (–)-crebanine (1) by more than 40% relative to binding to the wild-type receptor, displaying the importance of hydrophobic interactions.”\n(§3) Purified 5-HT2C receptor protein was thoroughly mixed with CPM fluorescent dyes. […] Fluorescence signals, wavelength 387 nm (excitation) and 463 nm (emission), were monitored (Alexandrov et al. [2008]). […] The thermal denaturation of the samples was evaluated using the scatter plot curve, where the horizontal coordinates represented temperature and the vertical coordinates indicated normalized fluorescence intensity recorded for a particular temperature. […]"}, "[3]": {"target": "T3, 5-HT2C receptor A222^5.46V (Homo sapiens, UniProt P28335, A222V/DEL255-298/G251D/H250E/H252N/INS299[…]/L248D/M247A/M300L/T253W)", "T3 construct": "the N- and C-terminals were truncated by 39 and 65 residues, respectively; PreScission protease site + 10× His (C); made in house", "T3 sequence (P28335 with tags, fused parts or gaps with the stated changes)": "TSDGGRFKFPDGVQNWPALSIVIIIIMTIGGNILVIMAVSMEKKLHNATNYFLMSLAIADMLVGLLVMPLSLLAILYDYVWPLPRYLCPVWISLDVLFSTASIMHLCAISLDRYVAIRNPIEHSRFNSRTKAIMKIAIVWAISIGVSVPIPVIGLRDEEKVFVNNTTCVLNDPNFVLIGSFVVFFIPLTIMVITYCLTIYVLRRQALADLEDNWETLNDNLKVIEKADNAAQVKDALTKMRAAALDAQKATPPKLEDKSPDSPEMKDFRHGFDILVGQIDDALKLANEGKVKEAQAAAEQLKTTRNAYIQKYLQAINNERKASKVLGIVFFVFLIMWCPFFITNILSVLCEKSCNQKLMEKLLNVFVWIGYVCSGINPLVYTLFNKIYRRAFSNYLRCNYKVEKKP", "assay": "Affinity MS assay, 5-HT2C mutant A222V", "conditions": "mutant A222^5.46V, n = 2", "text": "as §1, §2"}, "[4]": {"target": "T4, 5-HT2C receptor T139^3.37A (Homo sapiens, UniProt P28335, DEL255-298/G251D/H250E/H252N/INS299[…]/L248D/M247A/M300L/T139A/T253W)", "T4 construct": "the N- and C-terminals were truncated by 39 and 65 residues, respectively; PreScission protease site + 10× His (C); made in house", "T4 sequence (P28335 with tags, fused parts or gaps with the stated changes)": "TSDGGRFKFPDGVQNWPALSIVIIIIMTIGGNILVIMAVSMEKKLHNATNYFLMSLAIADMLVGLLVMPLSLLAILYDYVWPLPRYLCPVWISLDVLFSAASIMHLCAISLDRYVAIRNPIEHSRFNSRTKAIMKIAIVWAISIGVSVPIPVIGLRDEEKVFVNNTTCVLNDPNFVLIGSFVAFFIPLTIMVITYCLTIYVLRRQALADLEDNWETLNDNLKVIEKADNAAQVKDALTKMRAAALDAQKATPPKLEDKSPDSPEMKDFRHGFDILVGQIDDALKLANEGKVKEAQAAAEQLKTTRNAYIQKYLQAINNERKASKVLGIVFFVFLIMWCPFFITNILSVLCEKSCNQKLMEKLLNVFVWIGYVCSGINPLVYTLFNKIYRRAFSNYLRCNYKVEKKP", "assay": "Affinity MS assay, 5-HT2C mutant T139A", "conditions": "mutant T139^3.37A, n = 2", "text": "as §1, §2"}, "[5]": {"target": "T5, 5-HT2C receptor G218^5.42S (Homo sapiens, UniProt P28335, DEL255-298/G218S/G251D/H250E/H252N/INS299[…]/L248D/M247A/M300L/T253W)", "T5 construct": "the N- and C-terminals were truncated by 39 and 65 residues, respectively; PreScission protease site + 10× His (C); made in house", "T5 sequence (P28335 with tags, fused parts or gaps with the stated changes)": "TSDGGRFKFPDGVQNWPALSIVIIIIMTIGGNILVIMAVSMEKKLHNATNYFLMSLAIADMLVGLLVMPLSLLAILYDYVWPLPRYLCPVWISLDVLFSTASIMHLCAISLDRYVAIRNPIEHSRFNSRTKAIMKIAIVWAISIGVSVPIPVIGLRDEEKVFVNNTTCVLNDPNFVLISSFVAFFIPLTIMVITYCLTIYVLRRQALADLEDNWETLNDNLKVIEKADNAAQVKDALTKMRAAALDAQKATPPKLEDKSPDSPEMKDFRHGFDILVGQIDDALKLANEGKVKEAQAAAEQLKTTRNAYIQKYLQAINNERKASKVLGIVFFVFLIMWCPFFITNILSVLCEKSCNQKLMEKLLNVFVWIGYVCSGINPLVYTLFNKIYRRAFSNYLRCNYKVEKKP", "assay": "Affinity MS assay, 5-HT2C mutant G218S", "text": "as §1, §2"}, "[6]": {"target": "T6, 5-HT2C receptor A222^5.46F (Homo sapiens, UniProt P28335, A222F/DEL255-298/G251D/H250E/H252N/INS299[…]/L248D/M247A/M300L/T253W)", "T6 construct": "the N- and C-terminals were truncated by 39 and 65 residues, respectively; PreScission protease site + 10× His (C); made in house", "T6 sequence (P28335 with tags, fused parts or gaps with the stated changes)": "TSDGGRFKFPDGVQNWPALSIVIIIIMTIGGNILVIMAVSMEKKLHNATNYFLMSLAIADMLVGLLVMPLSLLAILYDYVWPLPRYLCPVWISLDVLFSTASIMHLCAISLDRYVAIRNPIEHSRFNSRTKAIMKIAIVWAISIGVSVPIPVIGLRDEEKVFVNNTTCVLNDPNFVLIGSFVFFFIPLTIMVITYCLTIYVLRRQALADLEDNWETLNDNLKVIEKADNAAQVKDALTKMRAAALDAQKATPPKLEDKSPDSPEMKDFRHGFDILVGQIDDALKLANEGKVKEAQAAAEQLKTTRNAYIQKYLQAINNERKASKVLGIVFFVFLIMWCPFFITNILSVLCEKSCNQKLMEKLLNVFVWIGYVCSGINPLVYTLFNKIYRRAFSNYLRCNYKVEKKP", "assay": "CPM thermal stability assay, 5-HT2C mutant A222F", "conditions": "mutant A222^5.46F, n = 2", "text": "as §1, with “compared.” for “compared. Among the six mutations tested, five of them reduced the binding of (–)-crebanine (1) by more than 40% relative to binding to the wild-type receptor, displaying the importance of hydrophobic interactions.”\nas §3"}, "[7]": {"target": "T2, 5-HT2C receptor G218^5.42A", "assay": "Affinity MS assay, 5-HT2C mutant G218A", "text": "as §1, §2"}},
  "data": [
    {"smiles": "COc1ccc2c(c1OC)C[C@@H]1c3c(cc4c(c3-2)OCO4)CCN1C", "note": "[Compound 1, (–)-crebanine]", "values": [
      {"measurement": "(–)-Crebanine/MS relative ligand binding", "setting": "[1]", "result": 13.22, "unit": "%"},
      {"measurement": "(–)-Crebanine/CPM (Tm)", "setting": "[2]; mutant G218^5.42A, n = 2", "result": 53.92, "unit": "°C"},
      {"measurement": "Tm value decrease versus wild-type", "setting": "[2]; mutation Gly218^5.42Ala", "result": "over 6.0 °C"},
      {"measurement": "(–)-Crebanine/MS relative ligand binding", "setting": "[3]", "result": 25.84, "unit": "%"},
      {"measurement": "(–)-Crebanine/MS relative ligand binding", "setting": "[4]", "result": 14.64, "unit": "%"},
      {"measurement": "(–)-Crebanine/MS relative ligand binding", "setting": "[5]; mutant G218^5.42S, n = 2", "result": 6.04, "unit": "%"},
      {"measurement": "ligand-binding capacity reduction versus wild-type", "setting": "[5]; mutation Gly218^5.42Ser", "result": "over 60%"},
      {"measurement": "(–)-Crebanine/CPM (Tm)", "setting": "[6]", "result": 55.70, "unit": "°C"},
      {"measurement": "(–)-Crebanine/MS relative ligand binding", "setting": "[7]; mutant G218^5.42A, n = 2", "result": 9.82, "unit": "%"},
      {"measurement": "ligand-binding capacity reduction versus wild-type", "setting": "[7]; mutation Gly218^5.42Ala", "result": "over 60%"}
    ]}
  ]
}
